This note sets out measurements from ChEMBL document CHEMBL3758158, “Discovery of 2-azetidinone and 1H-pyrrole-2,5-dione derivatives containing sulfonamide group at the side chain as potential cholesterol absorption inhibitors” (Bioorg Med Chem Lett, 2016).

Structures are written as SMILES. Activity calls are given as the source filed them. No cut-off for these calls is given here.

Series [1] concerns Hamster. The series can be described thus: Increase in proportion of high density lipoprotein cholesterol to total cholesterol in serum of cholesterol fed hamster at 50 mg/kg/day, po administered for 7 days measured on day 7 post last dose. The format is functional, Cricetinae.
A short description of series [2]: Octanol-water partition coefficient, logP of the compound by HPLC analysis. The format is physicochemical.
The test system of series [3] is Hamster. The series can be described thus: Decrease in low density lipoprotein cholesterol level in serum of cholesterol fed hamster model at 50 mg/kg/day, po administered for 7 days measured on day 7 post last dose. In kind it is functional, Cricetinae. More on the design: scale not given: the % may be the effect or the level left.
In series [4] the test system is Hamster. Description: Effect on total cholesterol level in cholesterol fed hamster liver at 50 mg/kg/day, po administered for 7 days measured on day 7 post last dose. In kind it is ADME, organism-based. To be noted: cricetinae, in vivo, 168 h.
In series [5] the target is T1, NPC1-like intracellular cholesterol transporter 1 (Homo sapiens) (UniProt Q9UHC9).
T1 sequence (whole entry): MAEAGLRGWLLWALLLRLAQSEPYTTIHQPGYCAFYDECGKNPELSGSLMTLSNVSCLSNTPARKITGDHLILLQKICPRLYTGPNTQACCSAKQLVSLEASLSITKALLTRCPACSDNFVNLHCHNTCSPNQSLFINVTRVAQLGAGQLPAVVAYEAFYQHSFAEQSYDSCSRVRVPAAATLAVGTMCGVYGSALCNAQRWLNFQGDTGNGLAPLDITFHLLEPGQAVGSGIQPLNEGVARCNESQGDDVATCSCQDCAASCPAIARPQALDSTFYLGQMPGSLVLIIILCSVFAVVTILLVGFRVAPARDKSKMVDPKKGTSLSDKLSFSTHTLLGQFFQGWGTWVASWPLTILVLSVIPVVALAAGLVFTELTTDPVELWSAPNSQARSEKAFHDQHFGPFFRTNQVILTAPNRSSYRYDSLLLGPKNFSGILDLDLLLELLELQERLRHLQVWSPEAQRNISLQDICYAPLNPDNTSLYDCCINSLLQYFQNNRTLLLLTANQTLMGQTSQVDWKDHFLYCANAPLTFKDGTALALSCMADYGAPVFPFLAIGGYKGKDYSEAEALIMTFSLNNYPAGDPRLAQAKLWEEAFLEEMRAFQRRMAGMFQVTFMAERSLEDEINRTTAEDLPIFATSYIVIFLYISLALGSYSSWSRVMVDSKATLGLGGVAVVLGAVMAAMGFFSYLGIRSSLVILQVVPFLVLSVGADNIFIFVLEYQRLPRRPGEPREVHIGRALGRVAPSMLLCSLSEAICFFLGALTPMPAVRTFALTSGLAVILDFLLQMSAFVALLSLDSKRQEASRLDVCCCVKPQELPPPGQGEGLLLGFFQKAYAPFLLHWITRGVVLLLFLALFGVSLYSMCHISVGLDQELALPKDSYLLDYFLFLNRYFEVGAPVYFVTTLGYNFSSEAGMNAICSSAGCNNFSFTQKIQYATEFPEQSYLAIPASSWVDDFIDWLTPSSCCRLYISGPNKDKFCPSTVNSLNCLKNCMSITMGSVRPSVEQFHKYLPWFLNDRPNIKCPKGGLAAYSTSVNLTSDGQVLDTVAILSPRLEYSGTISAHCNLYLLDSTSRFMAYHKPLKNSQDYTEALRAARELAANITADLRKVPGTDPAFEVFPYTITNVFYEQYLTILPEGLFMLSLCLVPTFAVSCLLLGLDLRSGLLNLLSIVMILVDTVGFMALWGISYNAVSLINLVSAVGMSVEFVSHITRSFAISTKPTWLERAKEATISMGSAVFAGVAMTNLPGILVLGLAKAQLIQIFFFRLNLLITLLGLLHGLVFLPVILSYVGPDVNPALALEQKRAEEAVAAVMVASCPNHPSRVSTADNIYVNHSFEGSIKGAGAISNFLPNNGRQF
Description: Inhibition of niemann pick C1-like protein-1 in human Caco-2 cells assessed as cholesterol uptake at 100 uM after 24 hrs by HPLC analysis. The format is cell-based.

Series [6] deals with Hamster. Description: Toxicity in cholesterol fed hamster model assessed as change in body weight at 50 mg/kg/day, po administered for 7 days measured during compound dosing. The format is organism-based. To be noted: cricetinae, in vivo, 168 h.
A short description of series [7]: Cytotoxicity against human GES-1 cells assessed as cell viability after 48 hrs by MTT assay. In kind it is cell-based, GES1. To be noted: read-out: LC50. On the technique in general: Tetrazolium dyes change colour on reduction, which living cells bring about.
For series [8], the system named is Hamster. The series can be described thus: Increase in nitric oxide level in serum of cholesterol fed hamster at 50 mg/kg/day, po administered for 7 days measured on day 7 post last dose. The format is functional, organism-based. To be noted: Cricetinae.
For series [9], the system named is Hamster. Description: Decrease in free fatty acid level in serum of cholesterol fed hamster model at 50 mg/kg/day, po administered for 7 days measured on day 7 post last dose. The format is functional, Cricetinae. More on the design: scale not given: the % may be the effect or the level left.
A short description of series [10]: Cytotoxicity against human HEK293 cells assessed as cell viability after 48 hrs by MTT assay. To be noted: read-out: LC50. In kind it is cell-based.
Series [11] has as its system Hamster. The series can be described thus: Effect on triglyceride level in cholesterol fed hamster liver at 50 mg/kg/day, po administered for 7 days measured on day 7 post last dose. The conditions noted are these: cricetinae, in vivo, 168 h. The format is ADME, organism-based.
Series [12] concerns Hamster. Description: Increase in nitric oxide synthase level in serum of cholesterol fed hamster at 50 mg/kg/day, po administered for 7 days measured on day 7 post last dose. The format is functional, organism-based. To be noted: Cricetinae.
For series [13], the system named is Hamster. The series can be described thus: Decrease in triglyceride level in serum of cholesterol fed hamster model at 50 mg/kg/day, po administered for 7 days measured on day 7 post last dose. In kind it is functional, Cricetinae. More on the design: scale not given: the % may be the effect or the level left.
Series [14] relates to Hamster. Description: Decrease in total cholesterol level in serum of cholesterol fed hamster model at 50 mg/kg/day, po administered for 7 days measured on day 7 post last dose. The format is functional, Cricetinae. Also noted: scale not given: the % may be the effect or the level left.
The test system of series [15] is Hamster. The series can be described thus: Toxicity in cholesterol fed hamster model assessed as decrease in body weight at 50 mg/kg/day, po administered for 7 days measured for 3 days during compound dosing. The format is organism-based. To be noted: cricetinae, in vivo, 72 h.

The term logP denotes a log measure of how a compound divides between an organic and an aqueous phase. As a reminder, the inhibition is the percentage by which the read-out fell short of the control. With `Cc1ccc(N2C(=O)[C@H](CCCNS(=O)(=O)c3ccc(OC(F)(F)F)cc3)[C@H]2c2ccc(NS(C)(=O)=O)cc2)cc1`, the Activity was 42.9% with Hamster [1]; 17.8% in the series with Hamster [3]; “Non-toxic” in the series on Hamster [4]; “Non-toxic” with Hamster [6]; 21.4% in the series on Hamster [9]; “Non-toxic” in the series with Hamster [11]. Besides, the results for the Activity in the series with Hamster [13] and with Hamster [14] were 25.3% and 25.7%, respectively. In [2], the logP worked out at 3.4. Also, the inhibition in series [5] was determined as 41.4%. The CC50 at 48 h in series [7] and in [10] was > 100 µM each time. Also, the result with Hamster [8] and in the series with Hamster [12] was Active.

On to `CCc1ccc(S(=O)(=O)NCCC[C@H]2C(=O)N(c3ccc(C)cc3)[C@@H]2c2ccc([N+](=O)[O-])cc2)cc1`, for which the logP in [2] is ≥ 4.4. Also, the inhibition entry in [5] was “Active”. Further, the CC50 at 48 h in series [7] and in [10] was > 100 µM throughout.

Take `Cc1ccc(N2C(=O)[C@H](CCCNS(=O)(=O)c3cccs3)[C@H]2c2ccc([N+](=O)[O-])cc2)cc1`: the inhibition result in [5] is “Active”.

As to `O=C1C(c2ccc(O)cc2)=C(c2ccc(F)cc2)C(=O)N1CCCCNS(=O)(=O)c1ccc(C(F)(F)F)cc1`, in series [5], the inhibition result is “Active”.

`O=C1C(c2ccc(O)cc2)=C(c2ccc(F)cc2)C(=O)N1CCCCNS(=O)(=O)c1ccc(OC(F)(F)F)cc1`: the inhibition entry in [5] is “Active”.

As to `Cc1ccc(N2C(=O)[C@H](CCCNS(=O)(=O)c3ccc(OC(F)(F)F)cc3)[C@H]2c2ccc(NS(=O)(=O)c3ccc(C)cc3)cc2)cc1`, the logP in [2] is 3.4. For the same molecule, in series [5], the inhibition entry is “Active”. For the same molecule, the CC50 at 48 h in [7] and in series [10] was > 100 µM in each case.

Take `Cc1ccc(N2C(=O)[C@H](CCCNS(=O)(=O)c3ccc(OC(F)(F)F)cc3)[C@H]2c2ccc([N+](=O)[O-])cc2)cc1`: in series [2], the logP is ≥ 4.4. Further, in series [5], the inhibition was 47.9%. The CC50 at 48 h in series [7] is 56.8 µM; in series [10], > 100 µM.

With `O=C1[C@H](CC[C@H](O)c2ccc(F)cc2)[C@@H](c2ccc(O)cc2)N1c1ccc(F)cc1` [EZETIMIBE], the Activity with Hamster [1] is on record as 56%; in the series on Hamster [3] it was 24.8%; with Hamster [9], 29.5%; in the series on Hamster [15] it was “Toxic”; in the series on Hamster [13], 36%; in the series on Hamster [14], 30.2%. In addition, the logP in series [2] came out at 3.4. In addition, the CC50 at 48 h in [7] amounted to 61.3 µM; in [10], 54.6 µM.

In series [2], `CCc1ccc(S(=O)(=O)NCCC[C@H]2C(=O)N(c3ccc(C)cc3)[C@@H]2c2ccc(NS(C)(=O)=O)cc2)cc1` displayed a logP of 3.4. Also, the inhibition entry in [5] was “Active”. The CC50 at 48 h in [7] and in series [10] was > 100 µM throughout.

Regarding `CCc1ccc(S(=O)(=O)NCCC[C@H]2C(=O)N(c3ccc(C)cc3)[C@@H]2c2ccc(NS(=O)(=O)c3ccc(C)cc3)cc2)cc1`, the logP in series [2] is 3.4. In series [5], the inhibition entry was “Active”. Besides, the CC50 at 48 h was determined as 92.9 µM in series [7] and 42.9 µM in series [10].
